Laboratory results as given in ChEMBL document CHEMBL1240317, “Probing cell-division phenotype space and Polo-like kinase function using small molecules” (Nat Chem Biol, 2006).
Activity calls are given as the source filed them. The rule behind the calls is not given here.

Experiments:
Type in all cases: functional, cell-based
Conditions in all cases: Chlorocebus aethiops
BSC-1 [1] = test: Induction of severe microtubule disruption in african green monkey BSC1 cells at 20 uM after 4 hrs by immunocytochemistry
BSC-1 [2] = test: Induction of reduced mitotic index in african green monkey BSC1 cells at 20 uM after 4 hrs by immunocytochemistry
BSC-1 [3] = test: Induction of deffects in mitotic spindle in african green monkey BSC1 cells at 20 uM after 4 hrs by immunocytochemistry

CCN(CC)CCCC(C)Nc1ncc([N+](=O)[O-])c(Nc2ccc3ncsc3c2)n1 (stereo not drawn)
Activity (BSC-1 [1]): Active | Activity (BSC-1 [2]): Active | Activity (BSC-1 [3]): Active

O=[N+]([O-])c1cnc(NC2CCCC2)nc1Nc1ccc2[nH]ccc2c1
Activity (BSC-1 [1]): Active | Activity (BSC-1 [2]): Active | Activity (BSC-1 [3]): Active

O=C(c1ccccc1)c1ccccc1Nc1ncc([N+](=O)[O-])c(Nc2ccc(Cl)c(Cl)c2)n1
Activity (BSC-1 [1]): Active | Activity (BSC-1 [2]): Active | Activity (BSC-1 [3]): Active

O=[N+]([O-])c1cnc(NC2CCCC2)nc1Nc1ccc2ncsc2c1
Activity (BSC-1 [1]): Active | Activity (BSC-1 [2]): Active | Activity (BSC-1 [3]): Active

O=[N+]([O-])c1cnc(-n2ccnc2-c2ccccc2)nc1NC1CCCC1
Activity (BSC-1 [1]): Active | Activity (BSC-1 [2]): Active | Activity (BSC-1 [3]): Active

CCCCNc1ncc([N+](=O)[O-])c(Nc2ccc3[nH]ccc3c2)n1
Activity (BSC-1 [1]): Active | Activity (BSC-1 [2]): Active | Activity (BSC-1 [3]): Active

O=[N+]([O-])c1cnc(Cl)nc1NC1CCCC1
Activity (BSC-1 [3]): Active

NC(=O)c1ccccc1Nc1nc(NCCCN2CCCC2=O)ncc1[N+](=O)[O-]
Activity (BSC-1 [1]): Active | Activity (BSC-1 [2]): Active | Activity (BSC-1 [3]): Active

NC(=O)c1ccccc1Nc1nc(NC2CCCC2)ncc1[N+](=O)[O-]
Activity (BSC-1 [1]): Active | Activity (BSC-1 [2]): Active | Activity (BSC-1 [3]): Active

COc1cc(Nc2ncc([N+](=O)[O-])c(Nc3ccccc3C(N)=O)n2)cc(OC)c1OC
Activity (BSC-1 [1]): Active

O=[N+]([O-])c1cnc(NC(CO)Cc2ccccc2)nc1Nc1ccc(Cl)c(Cl)c1 (stereo not drawn)
Activity (BSC-1 [1]): Active | Activity (BSC-1 [2]): Active | Activity (BSC-1 [3]): Active

CCCCNc1nc(Nc2ccc3ccccc3c2)ncc1[N+](=O)[O-]
Activity (BSC-1 [1]): Active | Activity (BSC-1 [2]): Active | Activity (BSC-1 [3]): Active

CC(=O)Nc1ccc(Nc2ncc([N+](=O)[O-])c(Sc3cccc(Cl)c3)n2)cc1
Activity (BSC-1 [1]): Active | Activity (BSC-1 [2]): Active | Activity (BSC-1 [3]): Active

CC(=O)Nc1ccc(Nc2ccnc(Nc3ccc(C(C)(C)C)cc3)n2)cc1
Activity (BSC-1 [1]): Active

O=C(c1ccccc1)c1ccccc1Nc1nc(NCc2cccs2)ncc1[N+](=O)[O-]
Activity (BSC-1 [2]): Active

CC(=O)Nc1ccc(Nc2ccnc(Nc3ccc4ccccc4c3)n2)cc1
Activity (BSC-1 [1]): Active

O=[N+]([O-])c1cnc(NC2CCCCCC2)nc1Nc1ccc2ncsc2c1
Activity (BSC-1 [1]): Active | Activity (BSC-1 [2]): Active | Activity (BSC-1 [3]): Active

O=[N+]([O-])c1cnc(Nc2ccc(Cl)c(Cl)c2)nc1Nc1ccc2ncsc2c1
Activity (BSC-1 [3]): Active

NC(=O)c1ccccc1Nc1nc(NC2CCCCCC2)ncc1[N+](=O)[O-]
Activity (BSC-1 [1]): Active | Activity (BSC-1 [2]): Active | Activity (BSC-1 [3]): Active

CC(=O)Nc1ccc(Nc2ncc([N+](=O)[O-])c(Nc3ccccc3C(N)=O)n2)cc1
Activity (BSC-1 [3]): Active

CN1CCN(c2ccc(Nc3ncc([N+](=O)[O-])c(Nc4ccccc4C(N)=O)n3)cc2)CC1
Activity (BSC-1 [1]): Active

Clc1ccc(Nc2nccc(Nc3ccc4c(c3)CCC4)n2)cc1Cl
Activity (BSC-1 [3]): Active

O=[N+]([O-])c1cnc(Nc2ccncc2)nc1NC1CCCC1
Activity (BSC-1 [1]): Active

O=[N+]([O-])c1cnc(NCc2cccs2)nc1Nc1ccc(Cl)c(Cl)c1
Activity (BSC-1 [1]): Active | Activity (BSC-1 [2]): Active | Activity (BSC-1 [3]): Active

CC(C)(C)c1ccc(Nc2ncc([N+](=O)[O-])c(Nc3ccc(Cl)c(Cl)c3)n2)cc1
Activity (BSC-1 [1]): Active | Activity (BSC-1 [2]): Active | Activity (BSC-1 [3]): Active

c1ccc(-c2nccn2-c2ccnc(NC3CCCC3)n2)cc1
Activity (BSC-1 [1]): Active | Activity (BSC-1 [2]): Active | Activity (BSC-1 [3]): Active

CCCCNc1nc(Nc2ccc(NC(C)=O)cc2)ncc1[N+](=O)[O-]
Activity (BSC-1 [3]): Active

CC(C)(C)c1ccc(Nc2ncc([N+](=O)[O-])c(NC3CCCC3)n2)cc1
Activity (BSC-1 [1]): Active | Activity (BSC-1 [2]): Active | Activity (BSC-1 [3]): Active

c1cc(Nc2nccc(Nc3ccc4c(c3)CCC4)n2)ccn1
Activity (BSC-1 [1]): Active | Activity (BSC-1 [2]): Active | Activity (BSC-1 [3]): Active

O=[N+]([O-])c1cnc(Nc2ccc3[nH]ccc3c2)nc1Nc1ccc2ncsc2c1
Activity (BSC-1 [3]): Active

CC(=O)Nc1ccc(Nc2ccnc(Nc3ccc4ncsc4c3)n2)cc1
Activity (BSC-1 [1]): Active

O=C(c1ccccc1)c1ccccc1Nc1nc(NC2CCCC2)ncc1[N+](=O)[O-]
Activity (BSC-1 [1]): Active | Activity (BSC-1 [2]): Active | Activity (BSC-1 [3]): Active

O=C(c1ccccc1)c1ccccc1Nc1nc(Nc2ccc3ccccc3c2)ncc1[N+](=O)[O-]
Activity (BSC-1 [1]): Active | Activity (BSC-1 [2]): Active | Activity (BSC-1 [3]): Active

NC(=O)c1ccccc1Nc1nc(NCc2cccs2)ncc1[N+](=O)[O-]
Activity (BSC-1 [1]): Active | Activity (BSC-1 [2]): Active | Activity (BSC-1 [3]): Active

O=C(c1ccccc1)c1ccccc1Nc1nc(Nc2ccc3ncsc3c2)ncc1[N+](=O)[O-]
Activity (BSC-1 [1]): Active | Activity (BSC-1 [2]): Active | Activity (BSC-1 [3]): Active

O=[N+]([O-])c1cnc(Nc2ccc3ncsc3c2)nc1Nc1ccc(Cl)c(Cl)c1
Activity (BSC-1 [1]): Active | Activity (BSC-1 [2]): Active | Activity (BSC-1 [3]): Active

COc1cc(Nc2ncc([N+](=O)[O-])c(Nc3ccc4c(c3)OCO4)n2)cc(OC)c1OC
Activity (BSC-1 [1]): Active

O=[N+]([O-])c1cnc(Nc2cccc3ncccc23)nc1Nc1ccc2ncsc2c1
Activity (BSC-1 [1]): Active

c1ccc2cc(Nc3nccc(Nc4ccc5c(c4)CCC5)n3)ccc2c1
Activity (BSC-1 [1]): Active | Activity (BSC-1 [2]): Active | Activity (BSC-1 [3]): Active

CC(C)(C)c1ccc(Nc2ncc([N+](=O)[O-])c(Nc3ccc4ncsc4c3)n2)cc1
Activity (BSC-1 [3]): Active

CC(=O)Nc1ccc(Nc2nccc(Nc3ccc4[nH]ccc4c3)n2)cc1
Activity (BSC-1 [1]): Active

c1ccc(-c2nccn2-c2ccnc(Nc3ccc4ncsc4c3)n2)cc1
Activity (BSC-1 [1]): Active

COc1ccc(Nc2ncc([N+](=O)[O-])c(Nc3ccc4[nH]ccc4c3)n2)cc1
Activity (BSC-1 [1]): Active

O=[N+]([O-])c1cnc(Nc2ccc3ccccc3c2)nc1Nc1ccc2ncsc2c1
Activity (BSC-1 [3]): Active

CC(=O)Nc1ccc(Nc2ncc([N+](=O)[O-])c(NC3CCCC3)n2)cc1
Activity (BSC-1 [2]): Active

CN1CCN(c2ccnc(Sc3cccc(Cl)c3)n2)CC1
Activity (BSC-1 [3]): Active

O=C(c1ccccc1)c1ccccc1Nc1nc(NC(CO)Cc2ccccc2)ncc1[N+](=O)[O-] (stereo not drawn)
Activity (BSC-1 [3]): Active

CC(C)(C)c1ccc(Nc2nccc(-n3ccnc3-c3ccccc3)n2)cc1
Activity (BSC-1 [3]): Active

O=[N+]([O-])c1cnc(-n2ccnc2-c2ccccc2)nc1Nc1ccc2ncsc2c1
Activity (BSC-1 [3]): Active

c1cc(Nc2ccc3c(c2)OCO3)nc(Nc2ccc3ncsc3c2)n1
Activity (BSC-1 [1]): Active

CC(=O)Nc1ccc(Nc2ccnc(Nc3ccc(Cl)cc3Cl)n2)cc1
Activity (BSC-1 [1]): Active

CC(C)(Nc1ncc([N+](=O)[O-])c(Nc2ccccc2C(N)=O)n1)c1ccccc1
Activity (BSC-1 [1]): Active

CC(C)(C)c1ccc(Nc2ncc([N+](=O)[O-])c(Nc3ccccc3C(N)=O)n2)cc1
Activity (BSC-1 [1]): Active

Cc1cc(Nc2cc(C3CC3)[nH]n2)nc(Nc2ccc(CC#N)cc2)n1
Activity (BSC-1 [1]): Active

O=C(c1ccccc1)c1ccccc1Nc1nc(NCCCN2CCCC2=O)ncc1[N+](=O)[O-]
Activity (BSC-1 [3]): Active
